According to paper PMC6024615, “Effect of Biliary Drainage on the Toxicity and Toxicokinetics of Amanita exitialis in Beagles” (Toxins, 2018):
*1 amine or outer side, *2 acyl side, *3 side chain or, on linkers, in order; H or OH if unused. Where a SMILES comes first, the peptide text is derived from it. Bridges are numbered along the chain shown (N, C = ends). [ ]: non-standard residue; d: D form. Trp(2-yl) = O=C([C@H](Cc1c([*:3])[nH]c2ccccc12)N[*:1])[*:2]; Leu(4R-OH,5-OH) = C[C@](O)(CO)C[C@H](N)C(=O)O; dAsp(3S-OH) = N[C@@H](C(=O)O)[C@H](O)C(=O)O; cisHyp = O=C(O)[C@@H]1C[C@H](O)CN1

Assays:
[1] = Peptide toxins in the urine of beagles with biliary drainage; type: in vivo, beagle dogs; details: for Total (accumulated) amount excreted in urine / percentage of total urine excretion, Total: 0–4 days
Experimental: (§1) The study was approved by National Institute of Occupational Health and Poison Control review board for animal experiments. Twenty-four male beagles (age, 8–10 months; weight, 10 ± 1 kg) were obtained from Beijing Institute of Xieerxin Biology Resource (Beijing, China). They were randomly divided into four groups of six animals each: control, biliary drainage, and 20 and 60 mg/kg with biliary drainage groups. The biliary drainage operation was conducted in all groups barring the control group. The dogs were dressed in homemade underwear, coats, and Elizabeth circles for a week to ensure pre-experimental acclimatization (Figure S8a–c). After determining the baseline values for biochemical indicators, the dogs were fasted for 24 h but received water ad libitum. They were anesthetized by intravenous administration of pentobarbital sodium (3%, 1 mL/kg) during the surgery. A temperature of 38–39 °C was maintained with a warming mat. After skin preservation and sterilization, the abdominal cavity was opened through the central abdomen. The abdomen was explored and blunt dissection of the common bile duct was performed (Figure S8d). The common bile duct and its branches were ligated from the intestinal side. A 7.0-Fr drainage catheter (COOK, Bloomington, IN, USA) was percutaneously inserted into the gallbladder, and a medical drainage bag was connected to the drainage catheter coming out of the abdominal cavity. Each opened layer, including the peritoneum, abdominal wall muscle, and skin, was closed with suture. The operative incision was protected with sterile gauze and a bandage, and the dogs were dressed in homemade underwear, coats, and Elizabeth circles. The drainage bag was placed in the pocket of the coat (Figure S8e). After the anesthetic wore off, the dogs were placed in cages, and food and water were provided ad libitum. The operative incision was sterilized with iodophor twice a day until stitches were removed six days after surgery. The drainage bag was replaced every day. On the eighth day after surgery, the 20 and 60 mg/kg with biliary drainage groups were orally administered a lyophilized powder of Amanita exitialis in starch capsules. In control and bile drainage group, the beagle dogs were fed with empty capsules. Immediately after dosing, the animals were placed in their cages, and food and water were provided ad libitum. Dogs were sacrificed with an overdose of sodium pentobarbital at the end of the experiment. All procedures were performed according to the ethical standards of the National Institutes of Health Guide for Animal Welfare and approved by the Institutional Animal Care and Use Committee (EAWE-2017-005).
(§2) Peptide toxins in blood and urine samples were analyzed as described previously. Bile samples from Days 0–1, Days 1–2, Days 2–3, and Days 3–4 were collected and stored in medical drainage bags and the bile volume was recorded. Plasma and urine samples were stored at 2–8 °C until analysis for peptide toxins.
(§3) UPLC and MS/MS parameters were as described in our previous study. The limit of detection and limit of quantitation of each toxin in the bile were 0.03 mg/kg and 0.5 mg/kg, respectively.

[2] = Peptide toxins in the bile of beagles with biliary drainage; type: in vivo, beagle dogs; details: for Accumulated amounts excreted in bile / percentage of total bile excretion, Accumulated amounts: 0–4 days
Experimental: as §1, §2
α-Amanitin, β-amanitin, γ-amanitin, and phallacidin were used as the standard reference materials. Aliquots (0.2 mL) of bile samples were transferred into 2-mL polypropylene centrifuge tubes in duplicates. Next, 1 mL of acetonitrile was added to each tube. After vortex-mixing for 1 min, each sample was sonicated for 30 min and centrifuged at 11,200× g for 10 min at 4 °C. The supernatants were loaded on solid-phase extraction columns (Oasis PRiME HLB, 60 mg, 3 cc). The columns were then washed with 3 mL of methanol/ultrapure water (v/v: 5/95). The eluent was evaporated in a stream of nitrogen at room temperature. The dry residue was dissolved in 0.2 mL of ultrapure water and analyzed by UPLC-ESI-MS/MS.
as §3

[3] = 0-1 d, 20 mg/kg with biliary drainage group
[4] = 0-1 d, 60 mg/kg with biliary drainage group
[5] = 0–1 days, 20 mg/kg with biliary drainage group
[6] = 0–1 days, 60 mg/kg with biliary drainage group
[7] = 20 mg/kg with biliary drainage group
[8] = 60 mg/kg with biliary drainage group
[9] = 1-2 d, 20 mg/kg with biliary drainage group
[10] = 1-2 d, 60 mg/kg with biliary drainage group
[11] = 1–2 days, 20 mg/kg with biliary drainage group
[12] = 1–2 days, 60 mg/kg with biliary drainage group
[13] = 2-3 d, 20 mg/kg with biliary drainage group
[14] = 2-3 d, 60 mg/kg with biliary drainage group
[15] = 2–3 days, 20 mg/kg with biliary drainage group
[16] = 2–3 days, 60 mg/kg with biliary drainage group
[17] = 3-4d, 20 mg/kg with biliary drainage group
[18] = 3-4d, 60 mg/kg with biliary drainage group
[19] = 3–4 days, 20 mg/kg with biliary drainage group
[20] = 3–4 days, 60 mg/kg with biliary drainage group

CC(C)[C@@H]1NC(=O)[C@H](C[C@@](C)(O)CO)NC(=O)[C@@H]2Cc3c([nH]c4ccccc34)SC[C@H](NC(=O)[C@@H]([C@H](O)C(=O)O)NC1=O)C(=O)N1C[C@@H](O)C[C@H]1C(=O)N[C@@H](C)C(=O)N2 [phallacidin] (cyclo(A[Trp(2-yl)][Leu(4R-OH,5-OH)]V[dAsp(3S-OH)]C[cisHyp]); thioether 2-6)
detection rate of peptide toxins in urine [1, 3]: 100% | detection rate of peptide toxins in urine [1, 4]: 100% | daily amount excreted in urine [1, 5]: 0.0012 mg | percentage of total urine excretion excreted daily ([1]; 0–1 days, 20 mg/kg with biliary drainage group, 20 mg/kg): more than 90% | percentage of total urine excretion excreted daily ([1]; 0–1 days, 20 mg/kg with biliary drainage group, listed as Phallacidin, 20 mg/kg): 92.2% | daily amount excreted in urine [1, 6]: 0.0017 mg | percentage of total urine excretion excreted daily [1, 6]: 70.5% | Total (accumulated) amount excreted in urine [1, 7]: 0.0014 mg | percentage of total urine excretion, Total [1, 7]: 100% | Total (accumulated) amount excreted in urine [1, 8]: 0.0025 mg | percentage of total urine excretion, Total [1, 8]: 100% | time within which toxin was detected in urine [1, 7]: two | time within which toxin was detected in urine [1, 8]: three | detection rate of peptide toxins in urine [1, 9]: 83% | detection rate of peptide toxins in urine [1, 10]: 100% | daily amount excreted in urine [1, 11]: 0.0001 mg | percentage of total urine excretion excreted daily [1, 11]: 7.8% | daily amount excreted in urine [1, 12]: 0.0005 mg | percentage of total urine excretion excreted daily [1, 12]: 22.1% | detection rate of peptide toxins in urine [1, 13]: 0% | toxin content in urine ([1]; 2-3d, 20 mg/kg with biliary drainage group, mean ± SD): 0 µg/L | detection rate of peptide toxins in urine [1, 14]: 50% | daily amount excreted in urine [1, 15]: 0(0%) mg | percentage of total urine excretion excreted daily [1, 15]: 0(0%) | daily amount excreted in urine [1, 16]: 0.0002 mg | percentage of total urine excretion excreted daily [1, 16]: 7.5% | detection rate of peptide toxins in urine [1, 17]: 0% | toxin content in urine [1, 17]: 0 µg/L | detection rate of peptide toxins in urine [1, 18]: 0% | toxin content in urine [1, 18]: 0 µg/L | daily amount excreted in urine [1, 19]: 0(0%) mg | percentage of total urine excretion excreted daily [1, 19]: 0(0%) | daily amount excreted in urine [1, 20]: 0(0%) mg | percentage of total urine excretion excreted daily [1, 20]: 0(0%) | share of total urine excretion in the 0–2-day urine ([1]; beagles with biliary drainage, both dose groups): more than 90% | detection rate of peptide toxins in bile [2, 3]: 83% | toxin concentration in bile ([2]; 0-1d, 20 mg/kg with biliary drainage group, mean ± SD): 0 µg/L | detection rate of peptide toxins in bile [2, 4]: 83% | daily amount excreted in bile [2, 5]: 0.00005 mg | percentage of total bile excretion excreted daily [2, 5]: 100% | daily amount excreted in bile [2, 6]: 0.0002 mg | percentage of total bile excretion excreted daily [2, 6]: 81.7% | Accumulated amounts excreted in bile [2, 7]: 0.00005 mg | percentage of total bile excretion, Accumulated amounts [2, 7]: 100% | percentage of total bile excretion, Accumulated amounts [2, 8]: 100% | Accumulated amounts excreted in bile ([2]; 60 mg/kg with biliary drainage group, 60 mg/kg): 0.00024 mg | ratio of peptide toxins in bile to excretion in urine and bile ([2]; 20 mg/kg with biliary drainage group, mean ± SD): less than 10% | ratio of peptide toxins in bile to excretion in urine and bile ([2]; 20 mg/kg with biliary drainage group, mean ± SD, listed as Phallacidin): 4.8 ± 5.7% | ratio of peptide toxins in bile to excretion in urine and bile ([2]; 60 mg/kg with biliary drainage group, mean ± SD): less than 20% | ratio of peptide toxins in bile to excretion in urine and bile ([2]; 60 mg/kg with biliary drainage group, mean ± SD, listed as Phallacidin): 9.4 ± 6.4% | detection rate of peptide toxins in bile [2, 9]: 0% | toxin concentration in bile [2, 9]: 0 µg/L | detection rate of peptide toxins in bile [2, 10]: 75% | daily amount excreted in bile [2, 11]: 0(0%) mg | percentage of total bile excretion excreted daily [2, 11]: 0(0%) | daily amount excreted in bile [2, 12]: 0.00004 mg | percentage of total bile excretion excreted daily [2, 12]: 18.3% | detection rate of peptide toxins in bile [2, 13]: 0% | toxin concentration in bile [2, 13]: 0 µg/L | detection rate of peptide toxins in bile [2, 14]: 0% | toxin concentration in bile [2, 14]: 0 µg/L | daily amount excreted in bile [2, 15]: 0(0%) mg | percentage of total bile excretion excreted daily [2, 15]: 0(0%) | daily amount excreted in bile [2, 16]: 0(0%) mg | percentage of total bile excretion excreted daily [2, 16]: 0(0%) | detection rate of peptide toxins in bile [2, 17]: 0% | toxin concentration in bile [2, 17]: 0 µg/L | detection rate of peptide toxins in bile [2, 18]: 0% | toxin concentration in bile [2, 18]: 0 µg/L | daily amount excreted in bile [2, 19]: 0(0%) mg | percentage of total bile excretion excreted daily [2, 19]: 0(0%) | daily amount excreted in bile [2, 20]: 0(0%) mg | percentage of total bile excretion excreted daily [2, 20]: 0(0%)
